The results in this text go back to patent US7193044B1, “Compounds and methods for regulating apoptosis, and methods of making and screening for compounds that regulate apoptosis” (Immunogen, Inc., priority 2000, dated 2007).

Entries after “also recorded” stand apart in the source; their conditions may differ. Residues, ends and D or L forms follow the SMILES beside them. *: point of attachment. Cbz = O=C(OCc1ccccc1)*; CH2F = FC*

Assay [1] has as its system BAD Ser155 phosphorylation in HeLa cells. The assay can be described thus: BAD phosphorylation in HeLa cells (western blot band-shift / anti-phospho-Ser155 antibody). The class given is cell-based, human. Here is the method:
A mammalian expression vector encoding mutant HA-BAD S155A, derived from the shorter murine BAD of SEQ ID NO:3, was constructed. HA-BAD S155A has an amino acid sequence wherein the serine at a position corresponding to Ser155 is substituted with alanine. A western blot was performed on WCL prepared from cells expressing the shorter murine BAD (SEQ ID NO:3), HA-BAD S112A, HA-BAD S136A, or HA-BAD S155A, and probed with anti-HA antibody.
A western blot analysis, probed with anti-HA antibody, was performed on lysates produced from the Forskolin treated and untreated (control) cells to determine whether Forskolin could induce the phosphorylation BAD or mutant BAD.
HeLa cells transiently expressing HA-BAD, HA-BAD S155A, HA-BAD S112A/S136A, or HA-BAD S112A/S136A/S155A were treated with Forskolin or a buffer control.
The HA-BAD S112A/S136A double mutant was transiently expressed in HeLa cells, and transfected cell cultures were treated with each of the GPCR ligands, individually and as a group. A western blot analysis, probed with anti-HA antibody, was performed on lysates produced from the treated and untreated (negative control) cells. […] Forskolin (FK) and no treatment (−) were positive and negative controls, respectively (FIG. 6(a), […], respectively).
Non-transfected HeLa cells were treated with Forskolin or L-epinephrine, followed by western blot analysis of cell lysates using anti-BAD antibodies.
Transformants were treated with L-epinephrine, then lysed and subjected to anti-HA western blot analysis.
(§1) To further test whether phosphorylation of Ser155 is dependent on the PI 3-kinase/Akt pathway, HeLa cells were transfected with the mutant HA-BAD S155A and pretreated with Wortmannin, an inhibitor of PI 3-kinase. These cells were then stimulated with epidermal growth factor (EGF), lysed and analyzed by western blot analysis.
For immunoprecipitation of all HA-BAD species, 1 μg of the anti-HA antibody was added to the cell lysates, and incubated at 4° C. for one hour. Protein G agarose (Pierce) was then added (50 μl/fraction of 50% slurry) and followed by a one hour incubation at 4° C. Beads were washed with RIPA buffer, boiled in loading buffer (2% SDS, 10% glycerol, 5% β-ME, 60 mM Tris, pH 6.8, 0.002% Bromophenol Blue) and loaded onto polyacrylamide gels. After electrophoresis, proteins were transferred to nitrocellulose membranes, and blots blocked in western wash buffer (40 mM Tris, pH 8.0, 150 mM NaCl, 0.2% NP-40) with 5% BSA for one hour at room temperature. Blots were incubated with primary antibody diluted in western wash buffer with 3% BSA at room temperature for 1–2 hours, washed with western wash buffer and incubated with secondary HRP-coupled antibody diluted in western wash buffer with 1.5% BSA, and washed extensively. Polypeptides were detected with the ECL chemiluminescence according to the manufacturers instructions (Amersham).

Assay [2] relates to BAD phosphorylation in Rat-1 cells. In words: BAD phosphorylation in Rat-1 cells (western blot band-shift / anti-phospho-Ser155 antibody). The class given is cell-based. An excerpt:
In the absence of a phospho-Ser155 antibody, it was difficult to conclude that this band-shift was solely the result of the phosphorylation of Ser155. However, it appeared that this response was at least primarily due to the phosphorylation at this site. This was based on the combined evidence, both in vitro and in cells, as described above (FIGS. 1, 2 and 4–7) and the fact that Ser155 is the only site of BAD homologous to the substrate consensus sequence of PKA.
Whether the BAD Ser155 kinase, PKA, is also activated by growth factors, and if so, whether such activation is PI 3-kinase dependent, was investigated. […] Cell lysates were analyzed via western blot analysis, probed using anti-HA antibody. […] However, the magnitude of phosphorylation was weaker and may be more transient, than the effect of Forskolin (FIG. 9(a)). Of note, Ser155 phosphorylation following IGF-1, EGF, or PDGF stimulation was not detected in HeLa cells (results not shown).
(§2) It has been documented that Akt kinase activity, the serine kinase shown to phosphorylate BAD Ser136, is induced by growth factors and is dependent on PI 3-kinase activation (Datta et al., 1997; del Peso et al., 1997). In related experiments, Rat-1 cells were pretreated with either the PKA inhibitor H89, or the PI 3-kinase inhibitor Wortmannin (available, e.g., from Sigma, St. Louis, Mo.), followed by stimulation with Forskolin (also available from Sigma) or PDGF. […] This indicated the shift was PKA dependent (FIG. 9(b), lower panel, compare lanes 5 and 6). […] It therefore presumably had no effect on PDGF-induced activation of PI 3-kinase.
To examine whether endogenous BAD is phosphorylated on Ser155 in response to growth factors, serum-starved Rat-1 fibroblasts were stimulated with PDGF. Whole cell lysates were prepared and endogenous BAD was immunoprecipitated. Proteins were separated by SDS-PAGE, and Ser155 phosphorylation was analyzed by Western blot using the phospho-S155 antibody and an anti-BAD antibody.
On the technique in general: A western blot detects proteins with antibodies after separation by electrophoresis.

The test system of assay [3] is Akt. In words: Akt activation in Rat-1 cells (anti-phospho-S473 Akt western blot). The format is cell-based. As to conditions: pretreatment then PDGF. Here is the method: FIG. 9(B) is two western blots. Rat-1 cells transiently expressing HA-BAD S112A/S136A were treated with a buffer control, H89 (PKA inhibitor) or Wortmannin (PI 3-kinase inhibitor), prior to stimulation with Forskolin or platelet-derived growth factor (“PDGF”). Whole cell lysates were then prepared and proteins were separated by SDS-PAGE. Blots were separately probed with an anti-phospho-S473 Akt antibody (the kinase that phosphorylates Ser136) (upper panel) and an anti-BAD antibody (lower panel).
as §2

Assay [4] has as its system Akt. In words: Akt activation in HeLa cells (anti-phospho-S473 Akt western blot). The format is cell-based, human. As to conditions: serum-starved HeLa cells, pretreatment then EGF.
Text: FIG. 10(B) is a series of western blots. Serum-starved HeLa cells expressing HA-BAD S155A, were pretreated with a buffer control (lanes 1 and 2), AG1478 (“AG”) (lane 3), Wortmannin (“Wm”) (lane 4), or H89 (lane 5). The cell cultures were then stimulated with a buffer control (lane 1) or EGF (lanes 2–5). Whole cell lysates were made from the cultures and the proteins were separated by SDS-PAGE. Blots were probed with either an anti-activated EGF receptor antibody (“activated EGFR”) (panel A), an anti-phospho-S473 Akt antibody (“pS473 Akt”) (panel B), or an anti-phospho-S155 BAD antibody (“pS155 BAD”) (panel D). Reblots were probed with either an anti-Akt antibody (“Akt”) (panel C) or an anti-HA BAD antibody (“HA-BAD”) (panel E).
as §1

Assay [5] concerns HeLa cells. The assay can be described thus: Fluorescence-based beta-galactosidase assay of BAD-induced cell death in transfected HeLa cells. Also on record: species or system human. Here is the method: FIG. 12(B) is a graphic representation of the results of a β-galactosidase assay. HeLa cells were co-transfected with the β-galactosidase gene and either HA-BAD (“WT”), HA-BAD S155A (“S155A”), HA-BAD S112A/S136A (“S112A/S136A”) or HA-BAD S112A/S136A/S155A (“AAA”). Transfected cells were then cultured in serum-free medium (SFM) or SFM supplemented with EGF (SFM+EGF) for 12 hours. Cell lysates were prepared and BAD-induced cell death was measured by the loss of β-galactosidase activity in a fluorescence-based assay. Fluorescence was measured at 465 nm. Results shown are the average and standard deviation of triplicate transfections (this experiment was repeated two more times with similar results). Expression levels of HA-tagged BAD and BAD mutants in transfected cell lysates were detected by anti-HA western blot analysis: HA-BAD (“WT”), HA-BAD S155A (“A”), HA-BAD S112A/S136A (“AA”), and HA-BAD S112A/S136A/S155A (“AAA”).
FIG. 12(C) is a graphic representation of the results of a β-galactosidase assay. HeLa cells were co-transfected with the β-galactosidase gene and either an empty vector (“CTL”), wild-type BAD (“WT”), the BAD S155A mutant (“S155A”) or the BAD S155D mutant (“S155D”). Cell lysates were prepared and BAD-induced cell death was measured by the loss of β-galactosidase activity in a fluorescence-based assay. Fluorescence was measured at 465 nm. […]

The subject of assay [6] is HeLa cells. The assay can be described thus: Beta-gal ELISA apoptosis assay in transfected HeLa cells. The class given is cell-based, human. The note with it: transfected cells, data not shown. The procedure: Because BAD Ser155 phosphorylation, like Ser136 phosphorylation, prevents BAD from binding to Bcl-XL (FIG. 1), it was possible that by analogy, Ser155 dephosphorylation promotes cell death. To test this idea, HeLa cells were co-transfected with BAD or various BAD serine mutants and a β-gal reporter plasmid. Twenty-four hours post-transfection, cell viability was analyzed by β-gal ELISA.
To test this idea, HeLa cells were again co-transfected with BAD or various BAD serine mutants and a β-gal reporter plasmid. Forskolin was then added to half of the cultures while the other half was left untreated. Beta-gal ELISAs were performed 24 hours post transfection. […] Thus, phosphorylation of Ser155 rescues cells from BAD-induced apoptosis, while substitution of Ser155 with a nonphosphorylatable residue results in increased cell death and the failure of cells to be protected from induced PKA activity.
Beta-gal ELISA assays were performed using the β-gal ELISA system from Boehringer Mannheim, according to manufacture's instructions. Cells were transfected with BAD (or BAD mutant) and β-gal in a ratio of 5:1. The transfected cells were trypsinized and distributed into 96-well tissue culture plates. […] The β-gal activity was measured by the absorbance of the sample at […]. Data were based on triplicate wells with standard deviations calculated.
(In general: In an ELISA, binding on a coated surface is turned into a signal by an enzyme label.)

Regarding `O=S(=O)(NCCNC/C=C/c1ccc(Br)cc1)c1cccc2cnccc12` [H89, reference compound], in assay [1] (HeLa cells), the “inhibition of L-epinephrine-induced band-shift of endogenous BAD” value was “band-shift was sensitive to the PKA inhibitor, H89; also recorded: blocked L-epinephrine-induced BAD phosphorylation”. The “basal phosphorylation of endogenous BAD” value in assay [1] (HeLa cells, treatment for one hour) was “reduced basal phosphorylation of endogenous BAD”. In addition, in assay [1] (serum-starved HeLa cells transfected with HA-BAD S155A (so in the source), pretreatment then EGF, anti-phospho-S155 blot), the “inhibition of EGF-induced phosphorylation of BAD on Ser155” value is “BAD Ser155 phosphorylation was prevented”. In assay [1] (transfected HeLa cells), the “inhibition of L-epinephrine-induced Ser155 phosphorylation of HA-BAD S112A/S136A” value was “inhibitory effect of H89”. In assay [2] (Rat-1 cells), the “inhibition of Forskolin-induced BAD band-shift” value is given as “sensitive to the PKA inhibitor H89”. For the same molecule, the “inhibition of PDGF-induced BAD band-shift/phosphorylation” value in assay [2] (Rat-1 cells, pretreatment then PDGF) is listed as “significantly reduced”. Further, the “inhibition of PDGF-induced Ser155 phosphorylation of endogenous BAD” value in assay [2] (serum-starved Rat-1 cells, pretreatment) is recorded as “significantly reduced”. Also, the “effect on PDGF-induced Akt activation” value in the assay with Akt [3] is “no effect on PDGF-induced Akt activation”. In the assay on Akt [4], the “effect on EGF-induced activation/phosphorylation of endogenous Akt” value was “without affecting the phosphorylation of Akt”.
Turning to `CC(NC(=O)C(NC(=O)OCc1ccccc1)C(C)C)C(=O)NC(CC(=O)O)C(=O)CF` (stereo not drawn) [z-VAD, reference compound] (Cbz-Val-Ala-Asp-CH2F; configuration not given here), the “reversal of BAD-induced reduction of beta-gal activity” value with HeLa cells [5] is “reversed”. In the assay with HeLa cells [6], the “protection from BAD-induced apoptosis” value is on record as “efficiently protected the cells”.
With EGF: epidermal growth factor, the “suppression of pro-apoptotic function of BAD” value in the assay with HeLa cells [5] (serum-free medium plus EGF for 12 hours) is listed as “suppressed the pro-apoptotic function of BAD”. Moreover, the “Ser155 phosphorylation following growth factor stimulation” value in assay [1] (HeLa cells, results not shown) is “not detected”. Further, the “induction of Ser155 phosphorylation of HA-BAD S112A/S136” value in assay [1] (serum-starved transfected HeLa cells) was “stimulated the phosphorylation of BAD on Ser155”. Moreover, in assay [2] (transfected Rat-1 fibroblasts), the “induction of band-shift of HA-BAD S112A/S136A” value was “induced a band-shift”.
